The results in this text go back to patent publication US7915270B2, “Oxazole ketones as modulators of fatty acid amide hydrolase” (The Scripps Research Institute, priority 2006, dated 2011).

One assay has as its target T1, Rat FAAH (Rattus norvegicus, UniProt P97612).
T1 construct: expressed in transfected cells
T1 sequence (P97612 1-579): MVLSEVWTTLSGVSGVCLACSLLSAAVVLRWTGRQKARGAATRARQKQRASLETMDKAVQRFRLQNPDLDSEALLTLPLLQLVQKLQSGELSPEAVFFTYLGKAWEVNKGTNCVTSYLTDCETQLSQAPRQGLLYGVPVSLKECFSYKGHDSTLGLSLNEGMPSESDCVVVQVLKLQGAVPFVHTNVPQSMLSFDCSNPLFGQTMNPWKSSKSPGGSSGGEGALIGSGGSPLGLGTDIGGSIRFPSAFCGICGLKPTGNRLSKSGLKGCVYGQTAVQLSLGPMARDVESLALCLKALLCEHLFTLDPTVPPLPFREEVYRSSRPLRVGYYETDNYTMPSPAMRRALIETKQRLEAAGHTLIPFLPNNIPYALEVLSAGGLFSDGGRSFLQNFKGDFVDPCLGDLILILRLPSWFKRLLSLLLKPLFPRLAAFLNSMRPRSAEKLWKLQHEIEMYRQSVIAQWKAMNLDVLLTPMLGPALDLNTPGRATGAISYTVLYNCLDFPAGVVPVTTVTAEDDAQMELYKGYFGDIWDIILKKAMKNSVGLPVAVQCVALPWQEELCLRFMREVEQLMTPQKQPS
The assay can be described thus: Assay Method 2: FAAH assay, 3H-anandamide hydrolysis in cell homogenate (SK-N-MC cells transfected with rat FAAH). The conditions noted are these: 3H-AEA 80 nM, rt 1 h, pH 9. It is filed as biochemical. The method, then: A. Transfection of Cells with Rat FAAH
(§1) A 10-cm tissue culture dish with a confluent monolayer of SK—N-MC cells was split 2 days (d) prior to transfection. Using sterile technique, the media was removed and the cells were detached from the dish by the addition of trypsin. One fifth of the cells were then placed onto a new 10-cm dish. Cells were grown in a 37° C. incubator with 5% CO2 in Minimal Essential Media Eagle with 10% Fetal Bovine Serum. After 2 d, cells were approximately 80% confluent. These cells were removed from the dish with trypsin and pelleted in a clinical centrifuge. The pellet was re-suspended in 400 μL complete media and transferred to an electroporation cuvette with a 0.4 cm gap between the electrodes. Supercoiled rat FAAH cDNA (1 μg) was added to the cells and mixed. The voltage for the electroporation was set at 0.25 kV, and the capacitance was set at 960 μF. After electroporation, the cells were diluted into complete media (10 mL) and plated onto four 10-cm dishes. Because of the variability in the efficiency of electroporation, four different concentrations of cells were plated. The ratios used were 1:20, 1:10, and 1:5, with the remainder of the cells being added to the fourth dish. The cells were allowed to recover for 24 h before adding the selection media (complete media with 600 μg/mL G418). After 10 d, dishes were analyzed for surviving colonies of cells. Dishes with well-isolated colonies were used. Cells from individual colonies were isolated and tested.
The assay mixture consisted of 50 μL of the cell homogenate, 10 μL of the test compound, and 40 μL of anandamide [1-^3H-ethanolamine] (^3H-AEA, Perkin-Elmer, 10.3 Ci/mmol), which was added last, for a final tracer concentration of 80 nM. The reaction mixture was incubated at rt for 1 h. During the incubation, 96-well Multiscreen filter plates (catalog number MAFCNOB50; Millipore, Bedford, Mass., USA) were loaded with 25 μL of activated charcoal (Multiscreen column loader, catalog number MACL09625, Millipore) and washed once with 100 μL of MeOH. […] After the 1 h incubation, 60 μL of the reaction mixture were transferred to the charcoal plates, which were then assembled on top of the DYNEX plates using Centrifuge Alignment Frames (catalog number MACF09604, Millipore). The unbound labeled ethanolamine was centrifuged through to the bottom plate (5 min at 2000 rpm), which was preloaded with the scintillant, as described above. The plates were sealed and left at rt for 1 h before counting on a Hewlett Packard TopCount.

The target of assay [1] is T2, FAAH (Rattus norvegicus, UniProt P97612).
T2 sequence (P97612 1-579): T1 sequence (P97612 1-579)
As to the kind of experiment: Assay Method 1A: FAAH enzyme assay, 14C-oleamide hydrolysis, solubilized liver plasma membrane extract.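 Also: ki obtained by Dixon analysis, taking the x-intercept of inhibitor concentration versus reciprocal rate plots at fixed substrate level and correcting for substrate concentration relative to Km.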
Procedure: Linear least squares fits were used for all reaction progress curves and R^2 values were consistently >0.97. […] Ki values were determined by the Dixon Method (x-intercepts of weighted linear fits of [I] versus 1/rate plots at constant substrate concentration, which were converted to Ki values using the formula Ki=−xint/[1+[S]/Km]).

The target of assay [2] is T3, FAAH (Homo sapiens, UniProt O00519).
T3 sequence (O00519 1-579): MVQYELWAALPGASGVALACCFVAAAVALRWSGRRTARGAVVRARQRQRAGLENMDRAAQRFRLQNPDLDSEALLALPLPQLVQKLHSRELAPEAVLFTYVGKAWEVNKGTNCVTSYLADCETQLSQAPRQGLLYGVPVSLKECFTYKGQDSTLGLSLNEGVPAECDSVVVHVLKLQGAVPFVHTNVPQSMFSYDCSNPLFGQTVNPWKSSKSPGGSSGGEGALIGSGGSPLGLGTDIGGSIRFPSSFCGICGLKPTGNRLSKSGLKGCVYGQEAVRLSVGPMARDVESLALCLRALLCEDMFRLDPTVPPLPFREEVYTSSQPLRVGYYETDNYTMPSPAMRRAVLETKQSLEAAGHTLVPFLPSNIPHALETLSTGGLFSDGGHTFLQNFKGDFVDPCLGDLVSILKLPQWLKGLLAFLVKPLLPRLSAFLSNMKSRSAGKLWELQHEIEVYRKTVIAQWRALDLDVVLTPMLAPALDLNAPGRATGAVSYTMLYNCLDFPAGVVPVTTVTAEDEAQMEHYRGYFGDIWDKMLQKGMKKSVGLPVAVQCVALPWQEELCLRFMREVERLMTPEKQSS
The assay can be described thus: Assay Method 1B: FAAH assay, 3H-anandamide hydrolysis in cell homogenate (T84 or SK-N-MC cells transfected with human FAAH). In kind it is biochemical. More on the design: expressed in transfected cells. The conditions noted are these: 3H-AEA 80 nM, rt 1 h, pH 9. The method, then:
as §1, with “Transfection of Cells with Human FAAH A 10-cm” for “A 10-cm”, “electrodes. Supercoiled human FAAH cDNA” for “electrodes. Supercoiled rat FAAH cDNA”, “and tested. […] The reaction mixture was incubated at rt for 1 h. During the incubation, 96-well Multiscreen filter plates (catalog number MAFCNOB50; Millipore, Bedford, Mass., USA) were loaded with 25 μL of activated charcoal (Multiscreen column loader, catalog number MACL09625, Millipore) and washed once with 100 μL of MeOH. Also during the incubation, 96-well DYNEX MicroLite plates (catalog number NL510410) were loaded with 100 μL of MicroScint40 (catalog number 6013641, Packard Bioscience, Meriden, Conn., USA). After the 1 h incubation, 60 μL of the reaction mixture were transferred to the charcoal plates, which were then assembled on top of the DYNEX plates using Centrifuge Alignment Frames (catalog number MACF09604, Millipore). The unbound labeled ethanolamine was centrifuged through to the bottom plate (5 min at 2000 rpm), which was preloaded with the scintillant, as described above. The plates were sealed and left at rt for 1 h before counting on a Hewlett Packard TopCount.” for “and tested.”

pIC50, pKi: −log10 of the molar value.

Consider `O=C(CCCCCCc1ccccc1)c1ncc(-c2ccccc2[N+](=O)[O-])o1` [Example 1, 1-(5-(2-Nitrophenyl)oxazol-2-yl)-7-phenylheptan-1-one], for which the pIC50 is 6.30 against Rat FAAH and 6.47 against FAAH [2]. The compound also gave a pKi at FAAH [1] of 6.90.

With `O=C(CCCCCCc1ccccc1)c1ncc(-c2cccc([N+](=O)[O-])c2)o1` [Example 2, 1-(5-(3-Nitrophenyl)oxazol-2-yl)-7-phenylheptan-1-one], the pIC50 is 6.30 at Rat FAAH and 7.30 at FAAH [2]. On FAAH [1], this compound showed a pKi of 7.55.

For the compound `O=C(CCCCCCc1ccccc1)c1ncc(-c2ccccc2F)o1` [Example 10, 1-(5-(2-Fluorophenyl)oxazol-2-yl)-7-phenylheptan-1-one], the pIC50 was 5.05 against Rat FAAH and 5.80 on FAAH [2]. Further, the pKi at FAAH [1] was 6.96.

Turning to `O=C(CCCCCCc1ccccc1)c1ncc(-c2cccc(F)c2)o1` [Example 11, 1-(5-(3-Fluorophenyl)oxazol-2-yl)-7-phenylheptan-1-one], the pIC50 is 5.20 against Rat FAAH and 6.66 against FAAH [2]. Further, the pKi at FAAH [1] is 7.22.

On to `COc1cccc(-c2cnc(C(=O)CCCCCCc3ccccc3)o2)c1` [Example 14, 1-(5-(3-Methoxyphenyl)oxazol-2-yl)-7-phenylheptan-1-one], for which the figures for the pIC50 against Rat FAAH and at FAAH [2] were 5.35 and 7.00, respectively. The compound also showed a negative-log Ki (pKi) at FAAH [1] of 7.40.

As for `COc1ccc(-c2cnc(C(=O)CCCCCCc3ccccc3)o2)cc1` [Example 15, 1-(5-(4-Methoxyphenyl)oxazol-2-yl)-7-phenylheptan-1-one], the figures for the pIC50 against Rat FAAH and against FAAH [2] were 5.40 and 6.11, respectively.

With `N#Cc1ccccc1-c1cnc(C(=O)CCCCCCc2ccccc2)o1` [Example 16, 2-(2-(7-Phenylheptanoyl)oxazol-5-yl)benzonitrile], the pIC50 at Rat FAAH was 5.70; against FAAH [2], 6.96.

Consider `N#Cc1cccc(-c2cnc(C(=O)CCCCCCc3ccccc3)o2)c1` [Example 17, 3-(2-(7-Phenylheptanoyl)oxazol-5-yl)benzonitrile], for which the pIC50 against Rat FAAH was 6.28; against FAAH [2], 8.05.

Turning to `N#Cc1ccc(-c2cnc(C(=O)CCCCCCc3ccccc3)o2)cc1` [Example 18, 4-(2-(7-Phenylheptanoyl)oxazol-5-yl)benzonitrile], the results for the pIC50 against Rat FAAH and against FAAH [2] were 6.66 and 6.54, respectively.

For `NS(=O)(=O)c1cccc(-c2cnc(C(=O)CCCCCCc3ccccc3)o2)c1` [Example 20, 3-(2-(7-Phenylheptanoyl)oxazol-5-yl)benzenesulfonamide], the pIC50 against Rat FAAH was 7.57; at FAAH [2], 8.40. On FAAH [1], this compound had a pKi of 8.70.

Regarding `NS(=O)(=O)c1ccc(-c2cnc(C(=O)CCCCCCc3ccccc3)o2)cc1` [Example 21, 4-(2-(7-Phenylheptanoyl)oxazol-5-yl)benzenesulfonamide], the figures for the negative logarithm of the IC50 (pIC50) at Rat FAAH and against FAAH [2] were 7.28 and 8.10, respectively. The compound also gave a pKi at FAAH [1] of 8.00.

As for `COC(=O)c1ccccc1-c1cnc(C(=O)CCCCCCc2ccccc2)o1` [Example 22, Methyl 2-(2-(7-phenylheptanoyl)oxazol-5-yl)benzoate], the pIC50 is 5.66 against Rat FAAH and 6.59 at FAAH [2]. On FAAH [1], the pKi was 7.22.

As to `COC(=O)c1cccc(-c2cnc(C(=O)CCCCCCc3ccccc3)o2)c1` [Example 23, Methyl 3-(2-(7-phenylheptanoyl)oxazol-5-yl)benzoate], the pIC50 was 7.00 on Rat FAAH and 7.82 against FAAH [2]. The same compound showed a pKi on FAAH [1] of 7.92.

As to `COC(=O)c1ccc(-c2cnc(C(=O)CCCCCCc3ccccc3)o2)cc1` [Example 24, Methyl 4-(2-(7-phenylheptanoyl)oxazol-5-yl)benzoate], the pIC50 against Rat FAAH was 6.00; on FAAH [2] it was 7.62. This compound also had a pKi at FAAH [1] of 7.40.

For the compound `O=C(O)c1cccc(-c2cnc(C(=O)CCCCCCc3ccccc3)o2)c1` [Example 25, 3-(2-(7-Phenylheptanoyl)oxazol-5-yl)benzoic acid], the pIC50 against Rat FAAH is 7.96; against FAAH [2], 8.40. Moreover, the pKi on FAAH [1] is 8.30.

Turning to `Nc1ccc(-c2cnc(C(=O)CCCCCCc3ccccc3)o2)cc1` [Example 29, 1-(5-(4-Aminophenyl)oxazol-2-yl)-7-phenylheptan-1-one], the pIC50 against Rat FAAH is 6.01; against FAAH [2], 6.55.

Turning to `O=C(CCCCCCc1ccccc1)c1ncc(-c2cccc(O)c2)o1` [Example 31, 1-(5-(3-Hydroxyphenyl)oxazol-2-yl)-7-phenylheptan-1-one], the pIC50 against Rat FAAH is 6.24; against FAAH [2], 7.26.

As to `O=C(CCCCCCc1ccccc1)c1ncc(-c2ccc(O)cc2)o1` [Example 32, 1-(5-(4-Hydroxyphenyl)oxazol-2-yl)-7-phenylheptan-1-one], the pIC50 is 5.74 against Rat FAAH and 6.35 against FAAH [2].

In the case of `O=C(CCCCCCc1ccccc1)c1ncc(-c2c[nH]c(=O)[nH]c2=O)o1` [Example 54, 5-(2-(7-Phenylheptanoyl)oxazol-5-yl)pyrimidine-2,4(1H,3H)-dione], the results for the pIC50 on Rat FAAH and against FAAH [2] were 7.33 and 5.10, respectively.
